From ChEMBL document CHEMBL1155467, “Semisynthesis and acetylcholinesterase inhibitory activity of stemofoline alkaloids and analogues” (J Nat Prod, 2010)
≈ marks a conversion by molar mass, not a printed value.

Assay: Inhibition of AChE assessed as minimum drug level causing white zone of enzyme inhibition by TLC bioautography

Q: Which MIC does the source give for `COC1=C(C)C(=O)O/C1=C1\O[C@@]23OC4CC(C2[C@H]1C)N1CCC3[C@]41/C=C/[C@@H](C)O` (some centres not stated) here?
A: Its MIC is 1.25 nM (≈ 0.501 ng/mL).

Q: Which MIC does the source give for `CCCCC12C3CC4C5[C@@H](C)[C@](O)([C@]6(O)OC(=O)C(C)=C6OC)O[C@]5(O3)C1CCN42` (some centres not stated) here?
A: Its MIC is 1.19 nM (≈ 0.501 ng/mL).
